Experimental findings from paper PMC3603449, “The affinity purification and characterization of ATP synthase complexes from mitochondria” (Open Biology, 2013) are described below.

The assay deals with T1, bovine F1Fo-ATPase (F-ATP synthase), F1 catalytic site (Bos taurus, UniProt P00829+P19483).
T1 construct: gene ATP5F1B; native purification from heart mitochondria; with ATP synthase F(1) complex subunit gamma, mitochondrial; ATP synthase F(1) complex subunit delta, mitochondrial; ATP synthase F(1) complex subunit epsilon, mitochondrial; ATP synthase F(0) complex subunit C1, mitochondrial (subunit c); ATP synthase F(0) complex subunit a; ATP synthase subunit O, mitochondrial (OSCP); ATP synthase F(0) complex subunit B1, mitochondrial (subunit b); ATP synthase subunit d, mitochondrial; ATP synthase-coupling factor 6, mitochondrial (F6); ATP synthase protein 8 (A6L); ATP synthase subunit e, mitochondrial; ATP synthase subunit f, mitochondrial; ATP synthase subunit g, mitochondrial
As to the kind of experiment: ATP synthesis in proteoliposomes with bacteriorhodopsin, luciferin-luciferase. It counts as biochemical. The following applies: turnover only; phosphate, pH 7.4, white light, I1-60GFP present.

With `Nc1ncnc2c1ncn2[C@@H]1O[C@H](COP(=O)(O)OP(=O)(O)O)[C@@H](O)[C@H]1O` [ADP], the “ATP synthesis in proteoliposomes with bacteriorhodopsin, luciferin-luciferase” value is reported as “On illumination with white light, ATP was synthesized in a linear manner”.
